Structures can show the parent of a compound that is named as a salt.
Columns and labels:
Settings in all cases: exposure time: 72 h
E13 [1] = patient-derived glioblastoma stem cells of classical subtype; assay: surviving fraction (nuclei count normalised to DMSO); higher = more cells surviving (less toxic)
E21 [2] = patient-derived glioblastoma stem cells of mesenchymal subtype; assay: as above
E28 [3] = patient-derived glioblastoma stem cells of classical subtype; assay: as above
E31 [4] = patient-derived glioblastoma stem cells of proneural subtype; assay: as above
E34 [5] = patient-derived glioblastoma stem cells of proneural subtype; assay: as above
E57 [6] = patient-derived glioblastoma stem cells of mesenchymal subtype; assay: as above
FT3469 [7] = normal neural stem cell line; assay: as above
E13 [8] = assay: phenotypic distance (Euclidean, principal components) from DMSO controls (arbitrary units); higher = stronger morphological change
E21 [9] = assay: as above
E28 [10] = assay: as above
E31 [11] = assay: as above
E34 [12] = assay: as above
E57 [13] = assay: as above
FT3469 [14] = assay: as above
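For phenotypic distance (Euclidean, principal components) from DMSO controls in this document: cell Painting imaging in 384-well plates, CellProfiler features reduced to at least 20 principal components, Euclidean distance versus same-plate DMSO vehicle wells (0.1% v/v), median over six images per well.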
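For surviving fraction (nuclei count normalised to DMSO) in this document: nuclei counted by high-content imaging of Hoechst-stained cells in laminin-coated 384-well plates, relative to 0.1% DMSO vehicle wells, with staurosporine as cell-death control.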

CCN(CC)CCCC(C)Nc1c2ccc(Cl)cc2nc2ccc(OC)cc12 (stereo not drawn) [Quinacrine dihydrochloride hydrate]
Settings	phenotypic distance	surviving fraction
E13 [1], 4.11523 nM	–	0.934
E13 [1], 12.34567901 nM	–	0.901
E13 [1], 37.037 nM	–	0.789
E13 [1], 111.1111111 nM	–	0.985
E13 [1], 333.333 nM	–	0.993
E13 [1], 1000 nM	–	0.911
E13 [1], 3000 nM	–	0.709
E13 [8], 4.11523 nM	0.636	–
E13 [8], 12.34567901 nM	0.492	–
E13 [8], 37.037 nM	0.777	–
E13 [8], 111.1111111 nM	0.595	–
E13 [8], 333.333 nM	2.11	–
E13 [8], 1000 nM	3.45	–
E13 [8], 3000 nM	1.42	–
E21 [2], 4.11523 nM	–	0.908
E21 [2], 12.34567901 nM	–	0.974
E21 [2], 37.037 nM	–	1
E21 [2], 111.1111111 nM	–	0.955
E21 [2], 333.333 nM	–	1.05
E21 [2], 1000 nM	–	1.09
E21 [2], 3000 nM	–	0.71
E21 [9], 4.11523 nM	0.539	–
E21 [9], 12.34567901 nM	0.4	–
E21 [9], 37.037 nM	0.451	–
E21 [9], 111.1111111 nM	0.853	–
E21 [9], 333.333 nM	0.649	–
E21 [9], 1000 nM	1.12	–
E21 [9], 3000 nM	1.66	–
E28 [3], 4.11523 nM	–	1.09
E28 [3], 12.34567901 nM	–	1.03
E28 [3], 37.037 nM	–	0.987
E28 [3], 111.1111111 nM	–	1.11
E28 [3], 333.333 nM	–	1.05
E28 [3], 1000 nM	–	1.13
E28 [3], 3000 nM	–	0.69
E28 [10], 4.11523 nM	0.665	–
E28 [10], 12.34567901 nM	0.451	–
E28 [10], 37.037 nM	0.457	–
E28 [10], 111.1111111 nM	0.704	–
E28 [10], 333.333 nM	0.722	–
E28 [10], 1000 nM	0.455	–
E28 [10], 3000 nM	1.98	–
E31 [4], 4.11523 nM	–	0.883
E31 [4], 12.34567901 nM	–	1.02
E31 [4], 37.037 nM	–	1.06
E31 [4], 111.1111111 nM	–	1.14
E31 [4], 333.333 nM	–	0.914
E31 [4], 1000 nM	–	1.16
E31 [4], 3000 nM	–	0.516
E31 [11], 4.11523 nM	1.19	–
E31 [11], 12.34567901 nM	0.694	–
E31 [11], 37.037 nM	0.513	–
E31 [11], 111.1111111 nM	0.784	–
E31 [11], 333.333 nM	0.524	–
E31 [11], 1000 nM	0.913	–
E31 [11], 3000 nM	2.12	–
E34 [5], 4.11523 nM	–	0.882
E34 [5], 12.34567901 nM	–	0.943
E34 [5], 37.037 nM	–	0.902
E34 [5], 111.1111111 nM	–	0.99
E34 [5], 333.333 nM	–	1.21
E34 [5], 1000 nM	–	0.998
E34 [5], 3000 nM	–	0.806
E34 [12], 4.11523 nM	0.829	–
E34 [12], 12.34567901 nM	1.53	–
E34 [12], 37.037 nM	0.456	–
E34 [12], 111.1111111 nM	0.849	–
E34 [12], 333.333 nM	1.06	–
E34 [12], 1000 nM	1.21	–
E34 [12], 3000 nM	0.812	–
E57 [6], 4.11523 nM	–	0.945
E57 [6], 12.34567901 nM	–	1.05
E57 [6], 37.037 nM	–	0.97
E57 [6], 111.1111111 nM	–	1.13
E57 [6], 333.333 nM	–	1.04
E57 [6], 1000 nM	–	1.1
E57 [6], 3000 nM	–	1.04
E57 [13], 4.11523 nM	1.09	–
E57 [13], 12.34567901 nM	1.14	–
E57 [13], 37.037 nM	0.424	–
E57 [13], 111.1111111 nM	0.923	–
E57 [13], 333.333 nM	0.838	–
E57 [13], 1000 nM	1.18	–
E57 [13], 3000 nM	2.11	–
FT3469 [7], 4.11523 nM	–	1.04
FT3469 [7], 12.34567901 nM	–	1.01
FT3469 [7], 37.037 nM	–	0.948
FT3469 [7], 111.1111111 nM	–	1.1
FT3469 [7], 333.333 nM	–	1.02
FT3469 [7], 1000 nM	–	1.1
FT3469 [7], 3000 nM	–	0.826
FT3469 [14], 4.11523 nM	0.574	–
FT3469 [14], 12.34567901 nM	0.546	–
FT3469 [14], 37.037 nM	0.759	–
FT3469 [14], 111.1111111 nM	0.562	–
FT3469 [14], 333.333 nM	0.547	–
FT3469 [14], 1000 nM	0.651	–
FT3469 [14], 3000 nM	2.59	–

— the supplement of paper PMC13207355
